The molecules below were run on Jurkat cells (assay: Adaptation to G2 cell cycle arrest (G1 increment) in X-ray pre-arrested Jurkat cells, flow cytometry). Conditions: Homo sapiens, Jurkat, 24 h, Table 2; concentration causing half-maximal increase of % cells in G1 phase (G1 increment); Jurkat pre-arrested by 10 Gy X-ray, 24 hours with compound.
Assay type: cell-based, human
Experimental: Phenotype-based screening was used to measure the ability of compounds of the invention to cause adaptation to G2 cell cycle arrest in G2-arrested cells. Adaptation to G2 cell cycle arrest and re-entry into the cell cycle can result in death of the previously G2-arrested cell, or suppression (inhibition) of further proliferation of the previously G2-arrested cell. In a non-limiting embodiment, the ability to cause adaptation to G2 cell cycle arrest was measured by contacting cells in which G2 arrest had been induced by irradiation (e.g., gamma (γ) radiation or X-ray radiation), with compounds of the invention at various concentrations and, for each compound at each concentration, determining the percentage of cells that escaped G2 arrest and re-entered the cell cycle, by determining the percentage of cells in G1 phase. The IC50 value for each compound was calculated as the dosage (usually in μM) that caused half-maximal increase of the percentage of cells in G1 phase (the G1 increment) measured for that compound. Certain invention compounds were initially identified by phenotype-based screening of small molecule libraries for activity against G2-arrested cells as described above.
Jurkat cells (a human T cell lymphoma-derived cell line) were arrested at the G2 phase by X-ray irradiation at 10 Gy, and cultured for 24 hours in 10% fetal calf serum (FCS)/RPMI1640 at 37° C. with 5% CO2/air. (FCS was from Equitech-Bio, Kerrville, Tex., and RPMI1640 was from Sigma-Aldrich, St. Louis, Mo.) Test compounds were added to the medium at the indicated doses, and the cells were cultured under the conditions described above, for an additional 24 hours before harvesting.
Harvested cells were stained with Krishan's buffer (0.1% sodium citrate, 50 μg/ml propidium iodide, 20 μg/ml RNase A, 0.5% Nonidet P-40) and analyzed by flow cytometry (BD Biosciences, Franklin Lakes, N.J.) to identify the cell stage of each cell in the sample. Cells in G1 phase were identified by having […] (2N) DNA content.
The IC50 value for each compound was calculated as the dosage showing half maximal activity to induce the increase of the percentage of cells in G1 phase (the G1 increment). IC50 values were used to measure the activity of compounds and to determine structure-activity relationships.
Pre-arrested Jurkat cells were prepared as described in Example 1. Briefly, Jurkat cells were subjected to X-ray irradiation at a dose of 10 Gy, and cultured for 24 hours in 10% fetal calf serum (FCS)/RPMI1640 at 37° C. with 5% CO2/air, after which time cells were exposed to various concentrations of test compounds, and cultured under the conditions described above for an additional 24 hours before harvesting. Harvested cells were stained with Krishan's buffer (0.1% sodium citrate, 50 μg/ml propidium iodide, 20 μg/ml RNase A, 0.5% Nonidet P-40) and analyzed by flow cytometry (BD Biosciences, Franklin Lakes, N.J.) to identify the cell stage of each cell in the sample. Cells in G1 phase were identified by having […] (2N) DNA content.
The IC50 value for each compound was calculated as the dosage (concentration in μM) that caused half-maximal increase of the percentage of cells in G1 phase (the G1 increment) measured for that test compound. Table 1 below presents the structure, mass, 1H NMR values, and […] values for representative compounds.
The IC50 value for each compound was calculated as the dosage (concentration in μM) that caused half-maximal increase of the percentage of cells in G1 phase (the G1 increment) measured for that test compound. Table 2 below presents structures, IUPAC name, molecular formula, ID number (“SCID”), mass, 1H NMR values, and IC50 values for representative compounds. Table 3 presents structures, IUPAC name, molecular formula, ID number (“SCID”), mass, 1H NMR values, and IC50 values for further representative compounds.

| Structure (SMILES) | IC50 [nM] |
| --- | --- |
| CC1=C(C)C(=O)N(Nc2cc(CN3CCN(C(=O)c4ccc(C)cc4C)CC3)c3ccc(Br)cc3n2)C1=O [Compound S01800, 1-{[4-({4-[(2,4-dimethylphenyl)carbonyl]piperazinyl}methyl)-7-bromo (2-quinolyl)]amino}-3,4-dimethylazoline-2,5-dione] | 625 |
| COc1ccc(C(=O)N2CCN(Cc3cc(NN4C(=O)C(C)=C(C)C4=O)nc4cc(Br)ccc34)CC2)cc1 [Compound S01801, 1-{[7-bromo-4-({4-[(4-methoxyphenyl)carbonyl]piperazinyl}methyl) (2-quinolyl)]amino}-3,4-dimethylazoline-2,5-dione] | 625 |
| CC(=O)N(c1ccc(C(F)(F)F)c(Cl)n1)N1C(=O)C(C)=C(CO)C1=O [Compound S01820, N-[6-chloro-5-(trifluoromethyl)(2-pyridyl)]-N-[4-(hydroxymethyl)-3-methyl-2,5-dioxoazolinyl]acetamide] | 625 |
| CC1=C(C)C(=O)N(Nc2cc(CN3CCN(S(=O)(=O)c4ccccc4)CC3)c3ccc(Br)cc3n2)C1=O [Compound S01822, 1-[(7-bromo-4-{[4-(phenylsulfonyl)piperazinyl]methyl}(2-quinolyl))amino]-3,4-dimethylazoline-2,5-dione] | 625 |
| CC1=C(C)C(=O)N(Nc2cc(CNC3CCN(C(=O)OC(C)(C)C)CC3)c3ccc(Br)cc3n2)C1=O [Compound S01862, tert-butyl 4-[({2-[(3,4-dimethyl-2,5-dioxoazolinyl)amino]-7-bromo-4-quinolyl}methyl)amino]piperidinecarboxylate] | 937 |
| CC1=C(C)C(=O)N(Nc2cc(CN3CCC(NC(=O)OC(C)(C)C)C3)c3ccc(Br)cc3n2)C1=O (stereo not shown) [Compound S01864, N-[1-({2-[(3,4-dimethyl-2,5-dioxoazolinyl)amino]-7-bromo(4-quinolyl)}methyl)pyrrolidin-3-yl] (tert-butoxy)carboxamide] | 468 |
| COC(=O)CCC1=C(C)C(=O)N(Nc2cc(CN3CCN(C(=O)OC(C)(C)C)CC3)c3ccc(Br)cc3n2)C1=O [Compound S01865, Methyl 3-(1-{[4-({4-[(tert-butyl)oxycarbonyl]piperazinyl}methyl)-7-bromo (2-quinolyl)]amino}-4-methyl-2,5-dioxoazolin-3-yl)propanoate] | 312 |
| CC1=C(C)C(=O)N(Nc2cc(CN3CCN(C(=O)c4ccc(F)cc4)CC3)c3ccc(Br)cc3n2)C1=O [Compound S01877, 1-{[7-bromo-4-({4-[(4-fluorophenyl)carbonyl]piperazinyl}methyl) (2-quinolyl)]amino}-3,4-dimethylazoline-2,5-dione] | 468 |
| CC1=C(C)C(=O)N(Nc2cc(CN3CCN(C(=O)c4ccccc4Cl)CC3)c3ccc(Br)cc3n2)C1=O [Compound S01878, 1-{[7-bromo-4-({4-[(2-chlorophenyl)carbonyl]piperazinyl}methyl) (2-quinolyl)]amino}-3,4-dimethylazoline-2,5-dione] | 234 |
| COc1ccccc1C(=O)N1CCN(Cc2cc(NN3C(=O)C(C)=C(C)C3=O)nc3cc(Br)ccc23)CC1 [Compound S01879, 1-{[7-bromo-4-({4-[(2-methoxyphenyl)carbonyl]piperazinyl}methyl) (2-quinolyl)]amino}-3,4-dimethylazoline-2,5-dione] | 78 |
| CC1=C(C)C(=O)N(Nc2cc(CN3CCN(C(=O)c4ccc(N(C)C)cc4)CC3)c3ccc(Br)cc3n2)C1=O [Compound S01880, 1-({4-[(4-{[4-(dimethylamino)phenyl]carbonyl}piperazinyl)methyl]-7-bromo (2-quinolyl)}amino)-3,4-dimethylazoline-2,5-dione] | 312 |
| COc1cccc(C(=O)N2CCN(Cc3cc(NN4C(=O)C(C)=C(C)C4=O)nc4cc(Br)ccc34)CC2)c1 [Compound S01925, 1-{[7-bromo-4-({4-[(3-methoxyphenyl)carbonyl]piperazinyl}methyl) (2-quinolyl)]amino}-3,4-dimethylazoline-2,5-dione] | 156 |
| CC1=C(C)C(=O)N(Nc2cc(CN3CCN(C4CCN(C(=O)OC(C)(C)C)CC4)CC3)c3ccc(Br)cc3n2)C1=O [Compound S01928, tert-butyl 4-[4-({2-[(3,4-dimethyl-2,5-dioxoazolinyl)amino]-7-bromo-4-quinolyl}methyl)piperazinyl]piperidinecarboxylate] | 938 |

Further lines, results first:

| IC50 [nM] | Structure (SMILES) |
| --- | --- |
| 625 | CC1=C(C)C(=O)N(Nc2cccc(-c3cccc(C(F)(F)F)c3)n2)C1=O [Compound S01691, 3,4-dimethyl-1-({6-[3-(trifluoromethyl)phenyl](2-pyridyl)}amino)azoline-2,5-dione] |
| 625 | CC1=C(C)C(=O)N(Nc2cc(CN3CCN(C(=O)c4ccccc4)CC3)c3ccc(Br)cc3n2)C1=O [Compound S01699, 1-[(7-bromo-4-{[4-(phenylcarbonyl)piperazinyl]methyl}(2-quinolyl))amino]-3,4-dimethylazoline-2,5-dione] |
| 156 | CCN(CC)C(=O)CCC1=C(C)C(=O)N(Nc2ccc(C(F)(F)F)c(Cl)n2)C1=O [Compound S01711, 3-(1-{[6-chloro-5-(trifluoromethyl)(2-pyridyl)]amino}-4-methyl-2,5-dioxoazolin-3-yl)-N,N-diethylpropanamide] |
| 156 | CCOC(=O)C(CC1=C(C)C(=O)N(Nc2ccc(C(F)(F)F)c(Cl)n2)C1=O)C(=O)OCC [Compound S01712, Diethyl 2-[(1-{[6-chloro-5-(trifluoromethyl)(2-pyridyl)]amino}-4-methyl-2,5-dioxoazolin-3-yl)methyl]propane-1,3-dioate] |
| 450 | CC1=C(C)C(=O)N(Nc2cc(Cl)c(C(F)(F)F)c(-c3ccccc3)n2)C1=O [Compound S01734] |
| 312 | CC1=C(C)C(=O)N(Nc2cc(C(F)(F)F)cc(Cl)n2)C1=O [Compound S01737, 1-{[6-chloro-4-(trifluoromethyl)(2-pyridyl)]amino}-3,4-dimethylazoline-2,5-dione] |
| 156 | CC1=C(CCC(=O)NC(C)(C)C)C(=O)N(Nc2ccc(C(F)(F)F)c(Cl)n2)C1=O [Compound S01758, N-(tert-butyl)-3-(1-{[6-chloro-5-(trifluoromethyl)(2-pyridyl)]amino}-4-methyl-2,5-dioxoazolin-3-yl)propanamide] |
| 625 | CC1=C(CCC(=O)N(C)c2ccccc2)C(=O)N(Nc2ccc(C(F)(F)F)c(Cl)n2)C1=O [Compound S01759, 3-(1-{[6-chloro-5-(trifluoromethyl)(2-pyridyl)]amino}-4-methyl-2,5-dioxoazolin-3-yl)-N-methyl-N-phenylpropanamide] |
| 625 | CC1=C(C)C(=O)N(Nc2ccc(C(F)(F)F)c(Cc3ccccc3)n2)C1=O [Compound S01762, 3,4-dimethyl-1-{[6-benzyl-5-(trifluoromethyl)(2-pyridyl)]amino}azoline-2,5-dione] |
| 78 | CON(C)C(=O)CCC1=C(C)C(=O)N(Nc2ccc(C(F)(F)F)c(Cl)n2)C1=O [Compound S01796, 3-(1-{[6-chloro-5-(trifluoromethyl)(2-pyridyl)]amino}-4-methyl-2,5-dioxoazolin-3-yl)-N-methoxy-N-methylpropanamide] |
| 50 | CCOC(=O)CCC1=C(C)C(=O)N(Nc2ccc(C(F)(F)F)c(Cl)n2)C1=O [Compound S01861, Ethyl 3-(1-{[6-chloro-5-(trifluoromethyl)(2-pyridyl)]amino}-4-methyl-2,5-dioxoazolin-3-yl) propanoate] |
| 234 | CNC(=O)CCC1=C(C)C(=O)N(Nc2ccc(C(F)(F)F)c(Cl)n2)C1=O [Compound S01883, 3-(1-{[6-chloro-5-(trifluoromethyl)(2-pyridyl)]amino}-4-methyl-2,5-dioxoazolin-3-yl)-N-methylpropanamide] |
